Literature values in patent publication US20070259967A1, “Methods of Diagnosis” (priority 2004, published 2007).

Key:
[1] = amphetamine administered to children with ADHD; Zametkin et al. 1984
Platelet MAO-B = target: T1, Platelet MAO-B (Homo sapiens, UniProt P27338); conditions: 0.24 mM pargyline added as blank; 20 μM PEA, 37° C., 30 minutes; method from Zhou et al.
T1 construct: the platelet pellet was resuspended with saline to obtain a concentration of 107 platelets/ml and then sonicated for 10 seconds; from tissue; host or cells: blood platelets (platelet rich plasma from fasting venous blood)
T1 sequence (P27338 1-520): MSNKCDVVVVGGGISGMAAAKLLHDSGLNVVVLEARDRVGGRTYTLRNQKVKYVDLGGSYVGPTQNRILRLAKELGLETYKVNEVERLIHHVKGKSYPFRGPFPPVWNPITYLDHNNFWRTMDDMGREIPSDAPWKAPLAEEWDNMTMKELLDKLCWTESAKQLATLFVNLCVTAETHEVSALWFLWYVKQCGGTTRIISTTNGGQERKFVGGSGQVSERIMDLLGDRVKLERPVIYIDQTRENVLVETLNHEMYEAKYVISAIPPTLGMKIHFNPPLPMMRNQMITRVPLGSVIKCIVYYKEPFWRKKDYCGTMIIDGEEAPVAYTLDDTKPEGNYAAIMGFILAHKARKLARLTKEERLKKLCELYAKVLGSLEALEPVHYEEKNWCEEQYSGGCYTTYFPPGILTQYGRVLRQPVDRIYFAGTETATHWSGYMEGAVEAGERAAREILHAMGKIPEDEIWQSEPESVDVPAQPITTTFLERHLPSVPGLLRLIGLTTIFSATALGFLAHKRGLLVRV

[2] = majority of the cited clinical studies of selegiline in ADHD

SMILES: CC(N)Cc1ccccc1 (stereo not drawn) [amphetamine]
- increase in the excretion of urinary phenylethylamine (PEA) [1]: 1600%

SMILES: C#CCN(C)Cc1ccccc1 [pargyline]
- production of PAA (phenylacetic acid) (Platelet MAO-B): no production of PAA

SMILES: C#CCN(C)[C@H](C)Cc1ccccc1.Cl [selegiline]
- benefit to ADHD patients compared with psycho-stimulant treatment [2]: less benefit to the patients than psycho-stimulant treatment
